Measured values as given in patent publication US20110076332A1, “Dextran-chitosan based in-situ gelling hydrogels for biomedical applications” (priority 2009, published 2011).

Test system: Staphylococcus aureus (S. aureus)
Test: Bacterial attachment and biofilm formation on hydrogels in 96-well plates, MTS assay
Format: cell-based
Details: whether or not a hydrogel was present
Procedure: Determination of bacteriostatic action against S. Aureus bacteria: Staphylococcus aureus (S. aureus) was used to study the resistance of selected dextran-chitosan hydrogels of the present invention to bacterial attachment and biofilm formation. Six different types of gels, having different chitosan-to-dextran ratios, proteins and bactericidal drugs, with six replicates each, were prepared in 96-well plates under sterile conditions. FIG. 18 is a bar chart showing the relative extent of bacterial growth, as estimated by MTS assay, for the various cases studied.
The chitosan and dextran solutions used in this study were prepared as described above. With reference to the labels used in FIG. 17, hydrogels were prepared with chitosan-dextran ratios of 1:1 (“1:1”), 2:1 (“2:1”) and 3:1 (“3:1”). Wells with chitosan sheets alone (“CS”), empty wells (“10̂8”), wells with vancomycin alone (“10̂8+VMC”) and wells with PBS alone (“PBS”) were used as controls. Additional hydrogels having chitosan-dextran ratios of 2:1 were prepared with fibronectin (“2:1+FN”), vancomycin (“2:1+VMC”) or both (“2:1+FN+VMC”) were also studied to understand the effect of drug loading and release on bacterial colony formation.
For the study, triplicate plates of each combination were seeded with S. aureus at a concentration of 1.0×10^8 bacteria/ml. The bacteria were allowed to attach and grow overnight (16 hours). […]

## CN[C@H](CC(C)C)C(=O)N[C@H]1C(=O)N[C@@H](CC(N)=O)C(=O)N[C@H]2C(=O)N[C@H]3C(=O)N[C@H](C(=O)N[C@H](C(=O)O)c4cc(O)cc(O)c4-c4cc3ccc4O)[C@H](O)c3ccc(c(Cl)c3)Oc3cc2cc(c3O[C@@H]2O[C@H](CO)[C@@H](O)[C@H](O)[C@H]2O[C@H]2C[C@](C)(N)[C@H](O)[C@H](C)O2)Oc2ccc(cc2Cl)[C@H]1O [vancomycin]
  bacterial colony formation: reduced bacterial colony formation
